How the values were obtained:
[1] = (§1) Total body clearance in human; settings: in vivo
Homo sapiens [2] = species: Homo sapiens; settings: in vivo
clinical = settings: human, in vivo
Homo sapiens [3] = species: Homo sapiens; experiment: as §1; settings: in vivo

Structure (SMILES) | clearance [1] | CL_renal (Homo sapiens [2]) | CL renal (clinical) | CL (Homo sapiens [3])
CN1C(C(=O)Nc2ccccn2)=C(O)c2sccc2S1(=O)=O [TENOXICAM] | 0.03 mL/min/kg | 0 mL/min/kg | – | –
N[C@@H](CC(=O)N1CCn2c(nnc2C(F)(F)F)C1)Cc1cc(F)c(F)cc1F [SITAGLIPTIN] | 6 mL/min/kg | – | 4.74 mL/min/kg | –
CCS(=O)(=O)CCn1c([N+](=O)[O-])cnc1C [TINIDAZOLE] | 0.6 mL/min/kg | – | 0.11 mL/min/kg | –
N=C(N)NC(=O)Cc1c(Cl)cccc1Cl [GUANFACINE] | 5.9 mL/min/kg | – | 3 mL/min/kg | –
CC[C@@]1(O)C(=O)OCc2c1cc1n(c2=O)Cc2c-1nc1ccccc1c2N | 6.5 mL/min/kg | – | 0.56 mL/min/kg | –
CCC1=C[C@@H]2CN(C1)Cc1c([nH]c3ccccc13)[C@@](C(=O)OC)(c1cc3c(cc1OC)N(C)[C@H]1[C@@](O)(C(=O)OC)[C@H](OC(C)=O)[C@]4(CC)C=CCN5CC[C@]31[C@@H]54)C2 [VINORELBINE] | 20 mL/min/kg | – | 2.2 mL/min/kg | –
COc1ccc([C@]2(C#N)CC[C@@H](C(=O)O)CC2)cc1OC1CCCC1 [CILOMILAST] | 0.5 mL/min/kg | – | 0.01 mL/min/kg | –
Clc1cccc(Cl)c1N=C1NCCN1 [CLONIDINE] | 4 mL/min/kg | – | 2.48 mL/min/kg | –
Cc1ccnc2c1NC(=O)c1cccnc1N2C1CC1 [NEVIRAPINE] | 0.3 mL/min/kg | – | 0.01 mL/min/kg | –
O=C1Nc2ccc(Cl)cc2C(c2ccccc2Cl)=NC1O (stereo not drawn) [LORAZEPAM] | 1 mL/min/kg | – | 0.01 mL/min/kg | –
Nc1nc2c(c(=O)[nH]1)N(C=O)C(CNc1ccc(C(=O)N[C@@H](CCC(=O)O)C(=O)O)cc1)CN2 (stereo partly drawn) [LEUCOVORIN] | 5.3 mL/min/kg | – | 0.8 mL/min/kg | –
CCN1CCN(C(=O)N[C@@H](C(=O)N[C@@H]2C(=O)N3[C@@H]2SC(C)(C)[C@@H]3C(=O)O)c2ccccc2)C(=O)C1=O [PIPERACILLIN] | 4 mL/min/kg | – | 3.2 mL/min/kg | –
CCCCS(=O)(=O)N[C@@H](Cc1ccc(OCCCCC2CCNCC2)cc1)C(=O)O [TIROFIBAN] | – | – | 1.59 mL/min/kg | 4.3 mL/min/kg
N[C@@H](Cc1ccc(N(CCCl)CCCl)cc1)C(=O)O | 7 mL/min/kg | – | 0.91 mL/min/kg | –
O=C(NCCNCC(O)COc1ccc(O)cc1)N1CCOCC1 (stereo not drawn) [XAMOTEROL] | 3 mL/min/kg | – | 1.86 mL/min/kg | –
CC1=NS(=O)(=O)c2cc(Cl)ccc2N1 [DIAZOXIDE] | 0.06 mL/min/kg | – | 0.06 mL/min/kg | –
CO[C@H]1/C=C/O[C@@]2(C)Oc3c(C)c(O)c4c(O)c(c(/C=N/N5CCN(C)CC5)c(O)c4c3C2=O)NC(=O)/C(C)=C\C=C\[C@H](C)[C@H](O)[C@@H](C)[C@@H](O)[C@@H](C)[C@H](OC(C)=O)[C@@H]1C [RIFAMPIN] | 1.5 mL/min/kg | – | 0.2 mL/min/kg | –
CCN(CC)C(=O)/C(C#N)=C/c1cc(O)c(O)c([N+](=O)[O-])c1 [ENTACAPONE] | 11.7 mL/min/kg | – | 6.4 mL/min/kg | –
CC(C)NCC(O)c1ccc(NS(C)(=O)=O)cc1 (stereo not drawn) [SOTALOL] | 2 mL/min/kg | – | 1.7 mL/min/kg | –
O=[N+]([O-])O[C@@H]1CO[C@H]2[C@@H]1OC[C@@H]2O [ISOSORBIDE MONONITRATE] | 2 mL/min/kg | – | 0.1 mL/min/kg | –
CC1(C)S[C@@H]2[C@H](NC(=O)[C@H](C(=O)O)c3ccsc3)C(=O)N2[C@H]1C(=O)O [TICARCILLIN] | 2.2 mL/min/kg | – | 1.9 mL/min/kg | –
O=C(NCCN1CCOCC1)c1ccc(Cl)cc1 [MOCLOBEMIDE] | 10 mL/min/kg | – | 0.05 mL/min/kg | –
CCCC1O[C@@H]2C[C@H]3[C@@H]4CCC5=CC(=O)C=C[C@]5(C)[C@H]4[C@@H](O)C[C@]3(C)[C@]2(C(=O)CO)O1 (stereo partly drawn) [BUDESONIDE] | 20 mL/min/kg | – | 1 mL/min/kg | –
CCN(CC)CCNC(=O)c1ccc(NC(C)=O)cc1 [ACECAINIDE] | 4 mL/min/kg | – | 3.2 mL/min/kg | –

Structure (SMILES) | clearance [1] | CL_renal (Homo sapiens [2]) | CL renal (clinical) | CL (Homo sapiens [3])
CCCCCCCN(CC)CCCC(O)c1ccc(NS(C)(=O)=O)cc1 (stereo not drawn) [IBUTILIDE] | 25 mL/min/kg | – | 2.5 mL/min/kg | –
C[C@@H]1O[C@@H]1P(=O)(O)O [FOSFOMYCIN] | 2 mL/min/kg | – | 2 mL/min/kg | –
CCCCC/C=C\CCC(=O)N[C@H]1[C@H](Oc2c3cc4cc2Oc2ccc(cc2Cl)[C@@H](O[C@@H]2O[C@H](CO)[C@@H](O)[C@H](O)[C@H]2NC(C)=O)[C@@H]2NC(=O)[C@H](NC(=O)[C@@H]4NC(=O)[C@H]4NC(=O)[C@@H](Cc5ccc(c(Cl)c5)O3)NC(=O)[C@H](N)c3ccc(O)c(c3)Oc3cc(O)cc4c3)c3ccc(O)c(c3)-c3c(O[C@H]4O[C@H](CO)[C@@H](O)[C@H](O)[C@@H]4O)cc(O)cc3[C@@H](C(=O)O)NC2=O)O[C@H](CO)[C@@H](O)[C@@H]1O [TEICOPLANIN A2-1] | 0.17 mL/min/kg | – | 0.17 mL/min/kg | –
COCc1c(C(C)C)nc(C(C)C)c(/C=C/[C@@H](O)C[C@@H](O)CC(=O)O)c1-c1ccc(F)cc1 [CERIVASTATIN] | – | 0 mL/min/kg | – | –
CC[C@@H](CO)NCCN[C@@H](CC)CO [ETHAMBUTOL] | 10 mL/min/kg | – | 7.3 mL/min/kg | –
Cc1onc(-c2c(Cl)cccc2Cl)c1C(=O)N[C@@H]1C(=O)N2[C@@H]1SC(C)(C)[C@@H]2C(=O)O [DICLOXACILLIN] | 2 mL/min/kg | – | 1.2 mL/min/kg | –
Cc1ncc2n1-c1ccc(Cl)cc1C(c1ccccc1F)=NC2 [MIDAZOLAM] | – | 0 mL/min/kg | – | –
C#CCN(C)[C@H](C)Cc1ccccc1 [SELEGILINE] | 20 mL/min/kg | – | 0.2 mL/min/kg | –
CN[C@@H]1[C@@H](O)[C@@H](O[C@@H]2[C@@H](O)[C@H](O[C@H]3OC(CN)=CC[C@H]3N)[C@@H](N)C[C@H]2N)OC[C@]1(C)O [SISOMICIN] | 1 mL/min/kg | – | 0.76 mL/min/kg | –
CCN1CCCC1CNC(=O)c1cc(S(=O)(=O)CC)c(N)cc1OC (stereo not drawn) [AMISULPRIDE] | 7.8 mL/min/kg | – | 4.4 mL/min/kg | –
CC1(C)S[C@@H]2[C@H](NC(=O)[C@H](NC(=O)N3CCN(S(C)(=O)=O)C3=O)c3ccccc3)C(=O)N2[C@H]1C(=O)O [MEZLOCILLIN] | 5.23 mL/min/kg | – | 2.4 mL/min/kg | –
C=CC1=C(C(=O)O)N2C(=O)[C@@H](NC(=O)/C(=N\OCC(=O)O)c3csc(N)n3)[C@H]2SC1 [CEFIXIME] | 1 mL/min/kg | – | 0.42 mL/min/kg | –
CCCn1c(=O)[nH]c(=O)c2[nH]cnc21 [ENPROFYLLINE] | 4 mL/min/kg | – | 3.56 mL/min/kg | –
CN1CCCC(n2nc(Cc3ccc(Cl)cc3)c3ccccc3c2=O)CC1 (stereo not drawn) [AZELASTINE] | 9 mL/min/kg | – | 0.18 mL/min/kg | –
CCN1CCCC1CNC(=O)c1cc(S(N)(=O)=O)ccc1OC (stereo not drawn) [SULPIRIDE] | 1.83 mL/min/kg | – | 1.7 mL/min/kg | –
Nc1nc(=O)[nH]cc1F [FLUCYTOSINE] | 2 mL/min/kg | – | 1.98 mL/min/kg | –
CN(C)CCc1c[nH]c2ccc(Cn3cncn3)cc12 [RIZATRIPTAN] | 19 mL/min/kg | – | 5.32 mL/min/kg | –
CCc1cccc2cc(C(O)CNC(C)(C)C)oc12 (stereo not drawn) [BUFURALOL] | – | 0 mL/min/kg | – | –
CN1CCN2c3ncccc3Cc3ccccc3C2C1 (stereo not drawn) [MIRTAZAPINE] | 8 mL/min/kg | – | 0.32 mL/min/kg | –
CN(C)[C@@H]1C(O)=C(C(N)=O)C(=O)[C@@]2(O)C(O)=C3C(=O)c4c(O)cccc4[C@@](C)(O)[C@H]3[C@H](O)[C@@H]12 [OXYTETRACYCLINE] | 2 mL/min/kg | – | 1.4 mL/min/kg | –
CC[C@H]1OC(=O)[C@H](C)[C@@H](O[C@H]2C[C@@](C)(OC)[C@@H](O)[C@H](C)O2)[C@H](C)[C@@H](O[C@@H]2O[C@H](C)C[C@H](N(C)C)[C@H]2O)[C@](C)(O)C[C@@H](C)CN(C)[C@H](C)[C@@H](O)[C@]1(C)O [AZITHROMYCIN] | 10 mL/min/kg | – | 0.45 mL/min/kg | –
CC1COc2c(N3CCN(C)CC3)c(F)cc3c(=O)c(C(=O)O)cn1c23 (stereo not drawn) [OFLOXACIN] | 3.5 mL/min/kg | – | 2.7 mL/min/kg | –
CC(=O)Nc1ccc(OCC(O)CNC(C)C)cc1 (stereo not drawn) [PRACTOLOL] | 2 mL/min/kg | – | 1.7 mL/min/kg | –
C=CC[C@@H]1/C=C(\C)C[C@H](C)C[C@H](OC)[C@H]2O[C@@](O)(C(=O)C(=O)N3CCCC[C@H]3C(=O)O[C@H](/C(C)=C/[C@@H]3CC[C@@H](O)[C@H](OC)C3)[C@H](C)[C@@H](O)CC1=O)[C@H](C)C[C@@H]2OC [TACROLIMUS ANHYDROUS] | 0.7 mL/min/kg | – | 0.01 mL/min/kg | –

— ChEMBL document CHEMBL1151930, “Physicochemical determinants of human renal clearance” (J Med Chem, 2009)
